Here are results for nine compounds from patent US20060110732A1, “Method for the identification of ligands” (priority 2002, published 2006).

In assay [1] the target is T1, PPAR-γ (Homo sapiens, UniProt P37231).
T1 sequence (P37231 1-505): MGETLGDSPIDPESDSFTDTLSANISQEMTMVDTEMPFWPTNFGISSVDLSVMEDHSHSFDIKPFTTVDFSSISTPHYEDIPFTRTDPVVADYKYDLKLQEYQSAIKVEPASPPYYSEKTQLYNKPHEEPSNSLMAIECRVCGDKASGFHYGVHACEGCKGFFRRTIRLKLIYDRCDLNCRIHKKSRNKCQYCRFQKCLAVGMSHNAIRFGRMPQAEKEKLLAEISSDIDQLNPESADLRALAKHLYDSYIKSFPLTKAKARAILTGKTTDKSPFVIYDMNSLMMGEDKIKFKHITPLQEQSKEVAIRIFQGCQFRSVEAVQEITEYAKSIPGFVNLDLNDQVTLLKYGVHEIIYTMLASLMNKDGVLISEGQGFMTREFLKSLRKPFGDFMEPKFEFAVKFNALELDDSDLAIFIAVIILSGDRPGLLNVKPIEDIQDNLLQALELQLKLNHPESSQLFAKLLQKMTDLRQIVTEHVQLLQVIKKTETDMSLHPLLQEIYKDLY
Put plainly: Microplate thermal shift of PPAR-γ with ligands, co-activator peptide and co-repressor peptide NCoR-1, Example 5. The settings on record: for Observed stabilization of PPAR-γ, SRC1-NR2 / Observed stabilization of PPAR-γ, NCoR-1 / Observed stabilization of PPAR-γ, Ligand: PPAR-γ 8 μM, ligand 40 μM; for Observed stabilization of PPAR-γ, SRC1-NR2: co-activator peptide 200 μM; for Observed stabilization of PPAR-γ, NCoR-1: co-repressor peptide NCoR-1 200 μM; for Observed stabilization of PPAR-γ, Ligand: no peptide; for Thermofluor Prediction (PPAR-γ): based on relative affinities for co-activator and co-repressor peptides, partial = partial agonist. The format is binding. The method, then: (§1) The experiments were performed in 25 mM HEPES pH 7.9, 200 mM NaCl, 5 mm DTT and in the presence of 50 μM dapoxyl-2-amino-ethyl sulfonamide. A 2 μL ligand solution at 2 times the final concentration was dispensed with a micropipette into a 384 well black wall Greiner plate. Then 2 μL of the protein dye solution was dispensed on top of the ligand solution in the 384 well plate. The plates were spun to ensure mixing of the protein-dye and ligand solutions followed by layering of 1 μL of silicone oil to prevent evaporation during heating of the samples. Data were collected on a Thermofluor apparatus and data were analyzed using software that employs a non-linear Marquardt algorithm. Reported results are the average of four experiments.

Assay [2] concerns the target T1, PPAR-γ. The settings on record: reported in literature; partial = partial agonist; cited from earlier work.
The target in assay [3] is T2, ER-β (Homo sapiens, UniProt Q92731). Put plainly: biochemical.
T2 sequence (Q92731 whole entry, species assumed): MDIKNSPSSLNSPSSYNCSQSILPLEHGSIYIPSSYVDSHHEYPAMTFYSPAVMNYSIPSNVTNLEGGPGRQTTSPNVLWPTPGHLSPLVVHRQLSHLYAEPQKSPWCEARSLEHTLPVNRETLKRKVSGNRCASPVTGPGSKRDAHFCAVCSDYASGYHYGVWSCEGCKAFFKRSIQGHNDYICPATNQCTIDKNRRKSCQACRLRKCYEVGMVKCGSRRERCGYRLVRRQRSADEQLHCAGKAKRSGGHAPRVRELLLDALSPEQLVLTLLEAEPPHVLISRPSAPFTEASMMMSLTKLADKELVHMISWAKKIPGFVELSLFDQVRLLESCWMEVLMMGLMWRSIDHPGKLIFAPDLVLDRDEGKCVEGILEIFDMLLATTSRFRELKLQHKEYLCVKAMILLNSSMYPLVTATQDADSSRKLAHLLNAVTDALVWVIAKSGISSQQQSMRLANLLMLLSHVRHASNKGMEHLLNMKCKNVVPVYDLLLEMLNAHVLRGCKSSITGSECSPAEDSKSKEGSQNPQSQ
Assay [4] has as its target T2, ER-β. The settings on record: ligand 40 μM; for Change in Tm stabilization from receptor-ligand ΔTm, SRC1: SRC-1 20 μM; for Observed ΔTm stabilization, Ligand: no co-activator.
In assay [5] the target is T3, ER-α (Homo sapiens, UniProt P03372).
T3 sequence (P03372 1-595): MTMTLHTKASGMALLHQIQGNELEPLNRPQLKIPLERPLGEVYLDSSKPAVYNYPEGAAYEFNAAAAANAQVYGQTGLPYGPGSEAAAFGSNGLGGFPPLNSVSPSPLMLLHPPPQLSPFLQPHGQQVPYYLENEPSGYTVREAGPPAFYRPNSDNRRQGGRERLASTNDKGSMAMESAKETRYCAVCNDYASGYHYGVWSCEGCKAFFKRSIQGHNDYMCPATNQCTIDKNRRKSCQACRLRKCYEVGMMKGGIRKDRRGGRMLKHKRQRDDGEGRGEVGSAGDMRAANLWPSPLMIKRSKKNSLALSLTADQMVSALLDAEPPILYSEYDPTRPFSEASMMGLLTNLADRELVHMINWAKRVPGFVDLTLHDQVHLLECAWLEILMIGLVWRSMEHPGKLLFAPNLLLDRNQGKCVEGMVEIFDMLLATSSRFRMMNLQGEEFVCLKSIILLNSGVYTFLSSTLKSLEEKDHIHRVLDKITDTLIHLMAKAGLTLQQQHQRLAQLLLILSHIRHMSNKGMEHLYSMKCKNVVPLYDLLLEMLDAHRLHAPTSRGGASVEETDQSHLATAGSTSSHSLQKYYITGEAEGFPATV
Kind of assay: Microplate thermal shift of ER-α against a panel of steroid ligands, Example 2. The format is binding. The settings on record: ER-α 8 μM, ligand 20 μM, 25 mM phosphate pH 8.0; average of four experiments. The method, then:
The concentration of ER-α in all of the experiments was 8 μM and the ligand concentration was 20 μM.
A 2 μL ligand solution at 2 times the final concentration was dispensed with a micropipette into a 384 well black wall Greiner plate. Then, 2 μL of the protein dye solution was dispensed on top of the ligand solution in the 384 well plate. The plates were spun to ensure mixing of the protein-dye and ligand solutions followed by layering of 1 μL of silicone oil to prevent evaporation during heating of the samples.

Assay [6] has as its target T3, ER-α. Kind of assay: biochemical. The method, then:
(§2) A 2 μL ligand solution at 2 times the final concentration was dispensed with a micropipette into a 384 well black wall Greiner plate. Then, 2 μL of the protein dye solution was dispensed on top of the ligand solution in the 384 well plate. The plates were spun to ensure nixing of the protein-dye and ligand solutions followed by layering of 1 μL of silicone oil to prevent evaporation during heating of the samples. […] The values for the co-regulators represent a change in Tm stabilization from the receptor-ligand ΔTm values.

Assay [7] has as its target T2, ER-β. Put plainly: Microplate thermal shift (Thermofluor) of ER-β with ligands and co-regulators, Example 1. Also noted: Observed ΔTm stabilization, ligand alone / Change in Tm stabilization from receptor-ligand ΔTm, SRC-3 / Change in Tm stabilization from receptor-ligand ΔTm, NcoR1-NR1: unit not given here. The format is binding. The settings on record: ER-β 8 μM, ligand 20 μM. The method, then:
as §2
Background: Differential scanning fluorimetry follows unfolding on heating by fluorescence.

Assay [8] concerns the target T3, ER-α. Kind of assay: biochemical. The method, then: Table 4, shown below, is a summary of the data obtained for ER-α and ER-β in the presence of the coactivator proteins SRC-1 SRC-2 and SRC-3 and in the presence of seven ligands. The concentration of ER-α in all experiments was 8 μM, the ligand concentration was 40 μM, SRC-1 and SRC-3 were at 20 μM.
as §1, with “A” for “The experiments were performed in 25 mM HEPES pH 7.9, 200 mM NaCl, 5 mm DTT and in the presence of 50 μM dapoxyl-2-amino-ethyl sulfonamide. A”, “experiments. The values for the co-regulators represent a change in Tm stabilization from the receptor-ligand ΔTm values.” for “experiments.”
FIG. 3 illustrates binding constants, Ka, for co-activator proteins SRC-1, SRC-2 and SRC-3 in the presence of ER-α ligands. FIG. 4 illustrates binding constants, Ka, for co-activator proteins SRC-1, […] in the presence of ER-β ligands Binding constants were calculated from the observed induced ligand and co-regulator stabilization of the nuclear receptor.
The source holds these as a separate data set.

[9] abbreviates: read-out: Change in Tm stabilization from receptor-ligand ΔTm, SRC1.
The mark [10] stands for this setting: read-out: Change in Tm stabilization from receptor-ligand ΔTm, SRC3.

Like-named read-outs stand apart in the source and are kept apart here.

Regarding `CC(C)(c1ccc(OCC2CO2)cc1)c1ccc(OCC2CO2)cc1` (stereo not drawn) [BADGE], at PPAR-γ [1], the “Observed stabilization of PPAR-γ, SRC1-NR2” value amounted to 1.1; the “Observed stabilization of PPAR-γ, NCoR-1” value came out at 5.5; the “Observed stabilization of PPAR-γ, Ligand” value amounted to 1.1; the “Thermofluor Prediction (PPAR-γ)” value was “Antagonist”. Moreover, the “Literature profile of ligand” value on PPAR-γ [2] is given as “Antagonist γ”.

As a reminder, the ΔTm is the change in melting temperature against a reference sample. `C[C@]12CC[C@@H]3c4ccc(O)cc4CC[C@H]3[C@@H]1CC[C@@H]2O` [Estradiol]: the ΔTm at 20 µM on ER-β [3] (setting [9]) stood at 0.5 °C.

In the case of `O=C(Nc1ccccc1)c1cc([N+](=O)[O-])ccc1Cl` [GW9662], on PPAR-γ [1], the “Observed stabilization of PPAR-γ, SRC1-NR2” value is recorded as 1.2; the “Observed stabilization of PPAR-γ, NCoR-1” value worked out at 3.5; the “Observed stabilization of PPAR-γ, Ligand” value was 5.9; the “Thermofluor Prediction (PPAR-γ)” value is on record as “Antagonist”. In addition, the “Literature profile of ligand” value at PPAR-γ [2] is “Antagonist γ”.

On to “17-α-ethylene-estradiol [17-α-ethylene-E2]”, for which the “Change in Tm stabilization from receptor-ligand ΔTm, SRC1” value at ER-β [4] is on record as 1.1.

For `C[C@]12CCC(=O)C=C1CC[C@@H]1[C@@H]2C(=O)C[C@@]2(C)[C@H]1CC[C@]2(O)C(=O)CO` [cortisone], the ΔTm on ER-α [5] amounted to 0.01 °C.

In the case of `Cc1cccc(Nc2cc(Cl)nc(SCC(=O)O)n2)c1C` [WY14643], on PPAR-γ [1], the “Observed stabilization of PPAR-γ, SRC1-NR2” value amounted to 1.5; the “Observed stabilization of PPAR-γ, NCoR-1” value was found to be 5.0; the “Observed stabilization of PPAR-γ, Ligand” value came to 1.0; the “Thermofluor Prediction (PPAR-γ)” value was “Antagonist”. Besides, the “Literature profile of ligand” value on PPAR-γ [2] is reported as “Partial α, antagonist γ”.

Regarding `COc1cc2c(cc1O)CC[C@@H]1[C@@H]2CC[C@]2(C)[C@@H](O)CC[C@@H]12` [2-methoxy-E2, 2-methoxy-estradiol], the “Change in Tm stabilization from receptor-ligand ΔTm, NcoR1-NR1” value at ER-α [6] (ER-α 8 μM, ligand 20 μM, co-repressor peptide NCoR-1 100 μM) is −0.7; at ER-β [7] (co-repressor peptide NCoR-1 100 μM), −0.7. Also, the “Observed ΔTm stabilization, ligand alone” value on ER-α [6] (ER-α 8 μM, ligand 20 μM, no co-regulator, average of four experiments) came out at 3.5; at ER-β [7] (no co-regulator, average of four experiments), 2.9. At ER-α [6] (if screened against a panel of co-regulators as in Example 1), the “Classification as agonist or antagonist for ER-α” value is “agonists”. Also, the “Change in Tm stabilization from receptor-ligand ΔTm, SRC1-NR2” value on ER-β [7] (co-activator peptide SRC1-NR2 100 μM) was 4.4. In addition, the “Change in Tm stabilization from receptor-ligand ΔTm, SRC3-NR2” value on ER-β [7] (co-activator peptide SRC3-NR2 100 μM) turned out to be 4.4. For the same compound, the “Change in Tm stabilization from receptor-ligand ΔTm, SRC-3” value at ER-β [7] (co-activator protein SRC-3 11 μM) is 2.5. In addition, the “Change in Tm stabilization from receptor-ligand ΔTm, SRC1” value was 2.1 at ER-α [8] (ER-α 8 μM, ligand 40 μM, SRC-1 20 μM) and 1.0 on ER-β [4]. Besides, the “Observed ΔTm stabilization, Ligand” value turned out to be 3.5 on ER-α [8] (ER-α 8 μM, ligand 40 μM, no co-activator) and 2.9 at ER-β [4]. In addition, the “Change in Tm stabilization from receptor-ligand ΔTm, SRC3” value on ER-β [4] (SRC-3 20 μM) was 2.5. In addition, the “Change in Tm stabilization from receptor-ligand ΔTm, SRC2” value at ER-β [4] (co-activator protein SRC-2) stood at 2.4.

As for `C[C@]12CC[C@@H]3c4ccc(O)cc4C[C@@H](CCCCCCCCC[S+]([O-])CCCC(F)(F)C(F)(F)F)[C@H]3[C@@H]1CC[C@@H]2O` (stereo partly drawn) [ICI-182780], the “Co-activator recruitment / additional stabilization, conclusion in words” value at ER-α [6] (from Table 1, both receptors ER-α and ER-β) is “no ability to recruit co-activators”. Also, the ΔTm at 11 µM on ER-α [6] (read-out: Change in Tm stabilization from receptor-ligand ΔTm, SRC-3) is 0.5 °C; at ER-β [7] (co-activator protein SRC-3 11 μM, read-out: Change in Tm stabilization from receptor-ligand ΔTm, SRC-3) it was 0.9 °C. Moreover, the “Co-activator recruitment, conclusion in words” value at ER-α [8] (from Table 4 and FIGS. 3 and 4, SRC-1, SRC-2, SRC-3, ER-α (b172 also ER-β)) is listed as “very little ability to recruit co-activator”. Further, the ΔTm at 20 µM was 0.4 °C at ER-α [8] (setting [9]), 0.5 °C on ER-α [8] (setting [10]), 0.5 °C on ER-β [3] (setting [9]) and 0.9 °C on ER-β [3] (setting [10]). Also, at ER-β [4], the “Observed ΔTm stabilization, Ligand” value was found to be 16.7.

Consider 4-hydroxytamoxifen [4-OH-tamoxifen], for which, on ER-α [6], the “Classification as agonist or antagonist for ER-α” value was “antagonist”.
